These results are taken from patent US20060029548A1, “Methods of diagnosing, monitoring and treating pulmonary diseases” (priority 2004, published 2006).

In test [1] the test system is pulmonary RAR-containing afferent nerve fiber. Kind of test: Vagal activation experiments in dogs: action potentials in RAR-containing fibers. Conditions: anesthetized dog. Format: in vivo. Here is the method:
The experiments described in Example 5 were performed essentially as described in Pelleg et al. [(1996) J. Physiol. 490(1):265-275] and U.S. Pat. No. 5,874,420, both of which are incorporated herein by reference in their entirety. In brief, they were performed on anesthetized (sodium pentobarbitone, 30 mg kg^−1 plus 3 mg kg^−1 h^−1, intravenous) dogs artificially ventilated with room air using a respirator. Arterial blood pH, PO2, PCO2, body temperature were maintained as described in U.S. Pat. No. 5,874,420. A peripheral vein was cannulated for the administration of physiological saline solution and maintenance doses of anesthetic. Catheters were introduced via the femoral vein and left atrial appendage and positioned in the right atrium and left atrium for the administration of test solutions. The chest was opened by a longitudinal sternotomy. The right cervical vagosympathetic trunk was exposed by a midcervical longitudinal section of the skin and careful dissection of neck muscles and connective tissues. The edges of the cut skin were elevated and secured to create a trough which was filled with warm (about 37° C.) mineral oil. A section of the vagosympathetic trunk was placed on a small plate of black Perspex™ and fine branches were separated from the main bundle by careful dissection using microsurgical tools and a dissecting microscope (Model F212, Jenopik Jena, GmbH, Germany).
Extracellular neural action potentials were recorded using a custom-made bipolar electrode that contained two platinum-iridium wires (1.25 cm×0.0125 cm) connected to a high-impedence first-stage differential amplifier (model AC8331, CW, Inc., Ardmore, Pa.) via a shielded cable. The output of the first-stage amplifier was fed into a second-stage differential amplifier (model BMA-831/C, CWE, Inc.). Isolated fibers were laid on the pair of platinum-iridium wires. Vagal C fibers with chemosensitive endings have a sparse irregular discharge which is not associated with cardiac or respiratory cycles. Confirmation of fiber type was obtained by: first monitoring the response to capsaicin (10 microg kg^−1, intra-right atrial bolus); second, monitoring the response to mechanical stimulation of the lungs using gentle probing with forceps as well as inflation of the lungs to 2-3 times the tidal volume; and third, determining the speed of conduction using a stimulating electrode positioned distal to the initial recording site. Nerve fibers with RAR on their pulmonary endings, spontaneously fire a brief (i.e., short lasting) volley of action potentials associated with peak tracheal pressure during each respiratory cycle.
[…] Volume controls consisted of either 5 ml+5 ml or 1 ml+3 ml physiological saline. All injections were performed in the same mode by the same person. To exclude involvement of baroreceptors in the recorded neural activity, the latter was monitored before and after a bolus of nitroglycerine (1 mg; intravenous).
The procedure described in Example 1 was used to measure action potentials in dog pulmonary fibers with RAR on their terminals following administration of various agents. RAR activation generated a brief volley of action potentials associated with each respiratory cycle that was seen before as well as after administration of ATP (FIG. 7). […] Thus ATP modified the activity of the RAR-containing fiber manifested in their transient loss of the rapid adaptability characteristic.

Test [2] deals with human subjects (airway responsiveness, FEV1). Kind of test: Inhalation challenge test: airway responsiveness measured as change in FEV1 (PD20). Format: in vivo. Conditions: for PD20 geometric mean: non-responders excluded; for PD20: individual subjects. From the text:
The clinical study described in Examples 2-4 was randomized, double blind, crossover, and controlled. Each subject attended the laboratory on three occasions. Procedures on the initial screening visit included obtaining information about the study and a number of investigations in the following order: medical history, lung function, reversibility and skin prick testing. At visit 2 and 3, separated by 2-7 days, the subjects were subjected to either an ATP or AMP challenge in a randomized fashion such that, by the end of the study, each patient had been tested with both compounds. Before, immediately after, and 30 minutes after the challenge, lung function and Borg score for dyspnoea were determined, and symptoms other than dyspnoea were recorded.
In the clinical study described in Examples 2-4, spirometric tests were performed using a dry spirometer (Vitalograph Ltd., Buckingham, England) and the best value of the three expiratory manoeuvers was expressed as liters and percentage of the predicted.
For the tests described in Examples 2-4, ATP and AMP (Sigma, Gillingham, Dorset, England) were dissolved freshly in normal saline solution to produce a range of doubling concentrations from 0.227-929 umol/ml for ATP and from 0.138-1152 umol/ml for AMP and immediately used for bronchial challenge. The solutions were administered using a breath-activated dosimeter (Mefar, Bovezzo, Italy) with an output of 10 ul per inhalation [Prieto et al. (2003) Chest 123:993-997]. The subjects, while wearing a nose clip, inhaled (via a mouthpiece) five breaths of normal saline, followed by sequential doubling concentrations of either ATP or AMP from functional residual capacity to total lung capacity. FEV1 was measured from two minutes after the fifth inhalation of normal saline until there was a fall in FEV1 of ≧20% of its value recorded after saline inhalation or until maximal concentration of either ATP or AMP was inhaled. The provocative dose causing a 20% decrease in FEV1 (PD20) was calculated by interpolation of the logarithmic dose response curve.
All data from the analyses described in Examples 2-4 were performed with a software package (GraphPad Prism Software, Inc., USA). The significance of differences among groups was assessed by Student's t-test, and analysis of categorical variables was examined by Chi-square test. Pearson's correlation coefficient and linear regression analysis were used to analyze the relationship between the percentage decreases in FEV1 and Borg score. The PD20 values for ATP and AMP were logarithmically transformed to normalize their distribution and presented as geometric means. All other numerical variables were expressed as the mean±SEM and significance was defined as p<0.05.

Structures are written as SMILES. “And” between values parts separate entries of the source, which are not always exact repeats. Equal entries are not always repeated. “Also recorded” adds a separate entry of the source.

Regarding `Nc1ncnc2c1ncn2[C@@H]1O[C@H](COP(=O)(O)OP(=O)(O)OP(=O)(O)O)[C@@H](O)[C@H]1O` [ATP, adenosine 5′-triphosphate], the “desensitization on repeated administrations” value in test [1] (RAR-containing fibers) was “not associated with desensitization”. Further, the “effect on action potentials of RAR-containing fibers” value in test [1] (rapid bolus, ATP 6 μmol/kg, capsaicin 10 ug kg−1, analogs 0.75 umol kg−1) is “activity of RAR-containing fibers was prolonged; also recorded: stimulated both the C fibers and RAR-containing fibers”. In test [2] (19 smoking subjects (seven healthy smokers, seven smokers at risk, five COPD)), the patients with bronchoconstriction was 42%. Also, the figures for the “mean PD20” value in test [2] (ATP-responsive COPD patients) and in test [2] (asthma patients) were 178.5 µmol/mL and 48.7 µmol/mL, respectively. In addition, the PD20 geometric mean in test [2] (COPD (n = 7)) was 178.5 µmol/mL; in test [2] (asthma (n = 10)) it was 48.7 µmol/mL; in test [2] (healthy smokers (n = 7)), 197.0 µmol/mL; in test [2] (non-smokers (n = 10)), above 929 µmol/mL; in test [2] (smokers at risk (n = 7)) it was 52.8 µmol/mL. Besides, the “patients who responded to challenge” value in test [2] (COPD patients) was determined as 67%; in test [2] (patients with asthma) it was 100%. Also, the “PD20 geometric mean (range)” value in test [2] (all subjects who had airway responsiveness) was 72.9 (2.9-808.7) umol/ml. The response to challenge entry in test [2] (healthy non-smokers, no change in FEV1 or reduction of less than 20%) was “negative”. Besides, the “control subjects who responded” value in test [2] (healthy smoker control subjects) was “three of seven”. The “subjects who responded to challenge” value in test [2] (healthy smokers) is given as 57%; in test [2] (smokers at risk), 14%. Further, the PD20 in test [2] (COPD (n = 7)) is 2.9 μmol/ml and >929 μmol/ml (2×) and 242.8 μmol/ml and 72.0 μmol/ml and 163.1 μmol/ml and 808.7 μmol/ml; in test [2] (asthma (n = 10)) it was 44.8 µmol/mL and 23.6 µmol/mL and 20.9 µmol/mL and 67.9 µmol/mL and 92.2 µmol/mL and 160.6 µmol/mL and 18.1 µmol/mL and 28.1 µmol/mL and 137.0 µmol/mL and 49.0 µmol/mL; in test [2] (healthy smokers (n = 7)) it was 303.4 μmol/ml and >929 μmol/ml (3×) and 70.2 μmol/ml and 442.4 μmol/ml and 159.9 μmol/ml; in test [2] (non-smokers (n = 10), provocative dose causing 20% decrease in FEV1), above 929 µmol/mL; in test [2] (smokers at risk (n = 7)), >929 μmol/ml (6×) and 52.8 μmol/ml. Moreover, the “subjects responsive to challenge” value in test [2] (of the 40 subjects in the study) came to 47.5%. Besides, the “ΔFEV1 (decrease in FEV1 as percentage of baseline FEV1)” value in test [2] (patients with asthma) is on record as 29%.
